Measured values as given in patent US20110040086A1, “Novel Beta-Lactam Antibiotics, Methods for Their Production, and Their Use” (DRITTE PATENTPORTFOLIO BETEILIGUNGSGESELLSCHAFT MB, priority 2007, published 2011).

What was measured:
[1] = system: Staphylococcus aureus ATCC 6538; assay: mouse infected with Staphylococcus aureus infection model (survival); format: in vivo, BALB/c mice; conditions: 2 × 1.0 mg (50 mg/kg) i.p.
Protocol: Method for Effectiveness In Vivo with the Mouse Infected with Staphylococcus aureus Model
On Day 0, at least 3 BALB/c mice per test substance (Table 8) or controls are pretreated with cyclophosphamide (250 mg/kg) in 250 μl PBS inta peritoneal (i.p.).
On Day 2, the animals again received 100 mg/kg i.p.
On Day 2, a colony of the test germ is transferred from a growing agar plate (Müller-Hinton-Agar, Beckton Dickinson) into a flask with 10 ml CASO broth (CASO-B., Soyabean peptone-Casein peptone broth, SIFIN, 30 g/l) and is cultivated overnight at 37° C. and a shaking frequency of 250 rpm.
On Day 3, the pre-culture (Vk) is diluted 1:50 with CASO-B and further cultivated ca. 2 hours until an extinction in the medium of 0.6 at a wavelength of 550 nm is reached. Then, it is grown 1× with PBS at room temperature and set again to an extinction of 0.6.
At least 3 animals for a test substance or controls are infected with 10 μl/g body weight grown germs of a bacteria suspension with the extinction 0.6 (ca. 10^10-10^12 CFU, Colony forming units) i.p.
After 30 minutes, antibiotic solution is injected into the mice in a volume of 200 μl PBS with 3% DMSO i.p. 6 hours later, the second antibiotic injection is performed at the same concentration. […]

S. epidermidis 847 = assay: agar diffusion test (Test System II, multi-resistant germs); format: cell-based, Staphylococcus epidermidis; parameters: key: r = resistant (no detectable zone of inhibition)
How it was run: (§1)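 Each plate of Müller-Hinton agar II, inoculated with a saline suspension at McFarland 0.5, carried three discs loaded with 10, 50 and 100 μg of substance. Incubation was 18-20 h at 37 °C, with inhibition zones then measured.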

S. epidermidis 125 = assay: as above; format: cell-based, Staphylococcus epidermidis
How it was run: as §1

S. aureus 38418 = assay: as above; format: cell-based, Staphylococcus aureus
How it was run: as §1

S. aureus ATCC 6538 = assay: as above; format: cell-based, Staphylococcus aureus
How it was run: as §1

S. aureus 520 = assay: as above; format: cell-based, Staphylococcus aureus; parameters: key: r = resistant (no detectable zone of inhibition)
How it was run: as §1

[2] = system: S. aureus North Germany strain; assay: as above; format: cell-based, Staphylococcus aureus; parameters: key: r = resistant (no detectable zone of inhibition)
How it was run: as §1

S. aureus 36881 = assay: as above; format: cell-based, Staphylococcus aureus; parameters: key: r = resistant (no detectable zone of inhibition)
How it was run: as §1

[3] = system: Enterococcus faecalis 769; assay: as above; format: cell-based; parameters: key: r = resistant (no detectable zone of inhibition)
How it was run: as §1

[4] = system: Staphylococcus aureus 315; assay: as above; format: cell-based; parameters: key: r = resistant (no detectable zone of inhibition)
How it was run: as §1

[5] = logP value by HPLC according to Donovan et al.; conditions: for chromatographic logP: HPLC with methanol/0.1% phosphoric acid gradient, pH 2
Protocol: • Operating temperature 18-24° C. • Flow 1.5 mL/min • Linear gradient (methanol/0.1% phosphoric acid pH 2) from 10% to 100% methanol in 9.4 min, equilibrium time between 2 runs 6 min
ca. 0.5 mg of analyte is added to 0.5 ml of a standard solution (440 mg methyl phenyl sulfonate and 380 μl toluene in 150 mL methanol). 2 μl of this sample solution is injected.
Because the distribution coefficients of the two standards running in each test are known, the distribution coefficient of the analytes can be determined from the relationships of the analyte/standard retention times.

3-chlorine-7-[2-(2-methoxycarbonyl-3,6-dioxocyclohexa-1,4-dienylamino)-2-phenyl-acetylamino]-8-oxo-5-aza-bicyclo[4.2.0]oct-3-ene-4-carboxylic acid [1o]
Survival/tested mice n/n [1]: 2/3 | Diameter of zone of inhibition (S. epidermidis 847; Quantity n [mol] 0.019): r | Diameter of zone of inhibition (S. epidermidis 847; Quantity n [mol] 0.094): 14 mm | Diameter of zone of inhibition (S. epidermidis 847; Quantity n [mol] 0.19): 18 mm | Diameter of zone of inhibition (S. epidermidis 125; Quantity n 0.019): 14 mm | Diameter of zone of inhibition (S. epidermidis 125; Quantity n 0.094): 20 mm | Diameter of zone of inhibition (S. epidermidis 125; Quantity n 0.19): 24 mm | Diameter of zone of inhibition (S. aureus 38418; Quantity n [mol] 0.019): 14 mm | Diameter of zone of inhibition (S. aureus 38418; Quantity n [mol] 0.094): 14 mm | Diameter of zone of inhibition (S. aureus 38418; Quantity n [mol] 0.19): 28 mm | Diameter of zone of inhibition (S. aureus ATCC 6538; Quantity n 0.019): 22 mm | Diameter of zone of inhibition (S. aureus ATCC 6538; Quantity n 0.094): 28 mm | Diameter of zone of inhibition (S. aureus ATCC 6538; Quantity n 0.19): 30 mm | Diameter of zone of inhibition (S. aureus 520; Quantity n [mol] 0.019): r | Diameter of zone of inhibition (S. aureus 520; Quantity n [mol] 0.094): r | Diameter of zone of inhibition (S. aureus 520; Quantity n [mol] 0.19): r | Diameter of zone of inhibition ([2]; Quantity n 0.019): r | Diameter of zone of inhibition ([2]; Quantity n 0.094): r | Diameter of zone of inhibition ([2]; Quantity n 0.19): 12 mm | Diameter of zone of inhibition (S. aureus 36881; Quantity n 0.019): r | Diameter of zone of inhibition (S. aureus 36881; Quantity n 0.094): r | Diameter of zone of inhibition (S. aureus 36881; Quantity n 0.19): 12 mm | Diameter of zone of inhibition ([3]; Quantity n 0.019): r | Diameter of zone of inhibition ([3]; Quantity n 0.094): r | Diameter of zone of inhibition ([3]; Quantity n 0.19): r | Diameter of zone of inhibition ([4]; Quantity n 0.019): r | Diameter of zone of inhibition ([4]; Quantity n 0.094): r | Diameter of zone of inhibition ([4]; Quantity n 0.19): 10 mm

CCOC(=O)C1=C(NC(C(=O)NC2C(=O)C3CC(Cl)=C(C(=O)O)NC32)c2ccccc2)C(=O)C=CC1=O (stereo not drawn) [1p, 3-chlorine-7-[2-(2-ethoxycarbonyl-3,6-dioxocyclohexa-1,4-dienylamino)-2-phenyl-acetylamino]-8-oxo-5-azabicyclo[4.2.0]oct-3-ene-4-carboxylic acid]
Survival/tested mice n/n [1]: 2/3 | Diameter of zone of inhibition (S. epidermidis 847; Quantity n [mol] 0.019): r | Diameter of zone of inhibition (S. epidermidis 847; Quantity n [mol] 0.094): 16 mm | Diameter of zone of inhibition (S. epidermidis 847; Quantity n [mol] 0.19): 20 mm | Diameter of zone of inhibition (S. epidermidis 125; Quantity n 0.019): 16 mm | Diameter of zone of inhibition (S. epidermidis 125; Quantity n 0.094): 26 mm | Diameter of zone of inhibition (S. epidermidis 125; Quantity n 0.19): 28 mm | Diameter of zone of inhibition (S. aureus 38418; Quantity n [mol] 0.019): 18 mm | Diameter of zone of inhibition (S. aureus 38418; Quantity n [mol] 0.094): 28 mm | Diameter of zone of inhibition (S. aureus 38418; Quantity n [mol] 0.19): >30 mm | Diameter of zone of inhibition (S. aureus ATCC 6538; Quantity n 0.019): 22 mm | Diameter of zone of inhibition (S. aureus ATCC 6538; Quantity n 0.094): 30 mm | Diameter of zone of inhibition (S. aureus ATCC 6538; Quantity n 0.19): 32 mm | Diameter of zone of inhibition (S. aureus 520; Quantity n [mol] 0.019): r | Diameter of zone of inhibition (S. aureus 520; Quantity n [mol] 0.094): r | Diameter of zone of inhibition (S. aureus 520; Quantity n [mol] 0.19): 8 mm | Diameter of zone of inhibition ([2]; Quantity n 0.019): r | Diameter of zone of inhibition ([2]; Quantity n 0.094): r | Diameter of zone of inhibition ([2]; Quantity n 0.19): 12 mm | Diameter of zone of inhibition (S. aureus 36881; Quantity n 0.019): r | Diameter of zone of inhibition (S. aureus 36881; Quantity n 0.094): 12 mm | Diameter of zone of inhibition (S. aureus 36881; Quantity n 0.19): 20 mm | Diameter of zone of inhibition ([3]; Quantity n 0.019): r | Diameter of zone of inhibition ([3]; Quantity n 0.094): r | Diameter of zone of inhibition ([3]; Quantity n 0.19): r | Diameter of zone of inhibition ([4]; Quantity n 0.019): r | Diameter of zone of inhibition ([4]; Quantity n 0.094): r | Diameter of zone of inhibition ([4]; Quantity n 0.19): 10 mm

O=C(NCCO)c1cc(O)ccc1O [2,5-dihydroxy-N-(2-hydroxyethyl)benzamide]
chromatographic logP [5]: -1.21

NC(=O)c1cc(O)ccc1O [2,5-dihydroxybenzamide]
chromatographic logP [5]: -0.4

CCOC(=O)c1cc(O)ccc1O [2,5-dihydroxybenzoic acid ethylester]
chromatographic logP [5]: 2.65

N[C@@H](C(=O)N[C@@H]1C(=O)N2C(C(=O)O)=C(Cl)CC[C@H]12)c1ccccc1 [2d, Loracarbef, reference compound]
logP value ([5]; HPLC, methanol/0.1% phosphoric acid pH 2): −3.13
